Reference: patent publication US9802888B2, “STAT3 inhibitors” (UNIVERSITY OF HAWAII, priority 2013, dated 2017)
“Also recorded” adds a separate entry of the source.

How the values were obtained:
Stat1:Stat1 = biological target: T1, Stat1:Stat1 (Mus musculus, UniProt P42225); experiment: Stat1 DNA-binding activity, EMSA with MGFe probe, nuclear extracts of EGF-stimulated NIH3T3/hEGFR; format: biochemical; conditions: for effect on Stat1:Stat1 DNA-binding activity: EMSA, MGFe probe; for disruption of Stat1 DNA-binding activity: concentrations up to 20 μM
T1 construct: endogenous in cells; host or cells: EGF-stimulated NIH3T3/hEGFR (nuclear extract)
T1 sequence (P42225 2-749 limits assumed): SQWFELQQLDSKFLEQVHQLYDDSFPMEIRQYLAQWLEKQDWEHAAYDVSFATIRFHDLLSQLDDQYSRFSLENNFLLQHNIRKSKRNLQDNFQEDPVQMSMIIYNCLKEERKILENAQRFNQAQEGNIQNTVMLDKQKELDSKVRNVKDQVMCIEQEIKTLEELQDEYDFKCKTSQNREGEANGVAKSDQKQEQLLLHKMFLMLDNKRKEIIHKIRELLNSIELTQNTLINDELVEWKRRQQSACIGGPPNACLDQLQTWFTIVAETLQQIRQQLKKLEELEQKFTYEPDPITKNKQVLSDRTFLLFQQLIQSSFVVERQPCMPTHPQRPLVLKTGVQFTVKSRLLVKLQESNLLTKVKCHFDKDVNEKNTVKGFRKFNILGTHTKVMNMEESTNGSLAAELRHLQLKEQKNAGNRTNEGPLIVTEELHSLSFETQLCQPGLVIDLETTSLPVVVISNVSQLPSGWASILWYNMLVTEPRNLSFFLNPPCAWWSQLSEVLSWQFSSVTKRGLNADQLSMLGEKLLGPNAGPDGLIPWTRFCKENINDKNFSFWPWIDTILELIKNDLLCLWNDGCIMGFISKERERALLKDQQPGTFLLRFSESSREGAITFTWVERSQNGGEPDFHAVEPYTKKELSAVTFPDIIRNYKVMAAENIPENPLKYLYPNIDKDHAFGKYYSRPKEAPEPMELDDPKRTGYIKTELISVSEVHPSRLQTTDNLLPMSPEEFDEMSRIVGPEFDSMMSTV
Description: Nuclear extract preparations and electrophoretic mobility shift assay (EMSA) were carried out as previously described. Yu et al., 1995; Turkson et al., Stat3 activation by Src induces specific gene regulation and is required for cell transformation. Mol. Cell. Biol. 18:2545-2552 (1998). The ^32P-labeled oligonucleotide probes used were hSIE (high affinity sis-inducible element from the c-fos gene, m67 variant, 5′-[…]) (SEQ ID NO: 1) that binds Stat1 and Stat3 and MGFe (mammary gland factor element from the bovine β-casein gene promoter, 5′-[…]) (SEQ ID NO: 2) for Stat1 and Stat5 binding. Wagner et al., The SIF binding element confers sis/PDGF inducibility onto the c-fos promoter. EMBO J. 9:4477-4484 (1990); Gouilleux et al., Prolactin and interleukin-2 receptors in T lymphocytes signal through a MGF-STATS-like transcription factor. Endocrinology 136:5700-5708 (1995). Except where indicated, nuclear extracts were pre-incubated with compound for 30 min at room temperature prior to incubation with the radiolabeled probe for 30 min at 30° C. before subjecting to EMSA analysis. Bands corresponding to DNA-binding activities were scanned and quantified for each concentration of compound using ImageQuant and plotted as percent of control (vehicle) against concentration of compound, from which the IC50 values were derived, as previously reported. […] J Biol Chem. 280:32979-32988 (2005).
[…]. Zhang et al. (2012). […]. Siddiquee et al., Selective chemical probe inhibitor of Stat3, identified through structure-based virtual screening, induces antitumor activity, Proc Natl Acad Sci USA. 104:7391-7396 (2007).

[1] = system: pY1068EGFR, pY416Src, pJak2, pShc, pErk1/2, pS473Akt; format: cell-based, human; conditions: concentrations that inhibit intracellular Stat3 activation (3-10 μM)
Text: (§1) FIG. 2. […] Positions of STATs:DNA complexes or proteins in gel are labeled; control lanes (0) represent nuclear extracts treated with 0.05% DMSO, or nuclear extracts or whole-cell lysates prepared from 0.05% DMSO-treated cells. Values shown in each panel are means plus standard deviations of at least four independent transfections, each performed in triplicate. For each transfection, luciferase activity was normalized to transfection efficiency, with β-Gal activity as an internal control. *-<0.05. Data are representative of 3-4 independent determinations. FIG. 2 (H). […] FIG. 2 (I).
(§2) Turkson et al., Novel peptidomimetic inhibitors of signal transducer and activator of transcription 3 dimerization and biological activity. […] Mol. Cell. […] Mol. Cell. […] Mol. Cell.

[2] = system: Bcl-2, Bcl-xL, Cyclin D1, c-Myc, and Survivin; experiment: Immunoblotting of Stat3-regulated gene expression; conditions: MDA-MB-231 and U251 cells; 24 h-treatment (5 uM)
[3] = system: Stat3-dependent luciferase reporter, pLucTKS3; experiment: Stat3-dependent luciferase reporter in NIH3T3 co-transfected with v-Src; format: cell-based, mouse; conditions: 3 or 5 μM
Text: as §1, §2

[4] = system: Stat3-independent luciferase reporter, pLucSRE; experiment: Stat3-independent luciferase reporter in NIH3T3 co-transfected with v-Src; format: cell-based, mouse; conditions: similar treatment (3 or 5 μM)
Text: as §1, §2

U251 cells = experiment: Intracellular levels by LC-MS of cell extracts; format: in vitro ADME, human; conditions: U251 cells treated once with 5 μM
Text: The intracellular and tissue levels of SH5-07 were studied, following a single treatment.

[5] = In vivo pharmacokinetic analysis, serum and brain tissue levels; parameters: species or system mouse; conditions: mice, single dose tail vein injection 3 mg/kg
[6] = system: glioma, breast cancer or pancreatic cancer; experiment: Treatment of subjects with cancer; format: in vivo; conditions: intravenous or oral, 0.08 mg/kg to 0.4 mg/kg
pY705Stat3 = pY705Stat3 (Mus musculus, UniProt P42227); experiment: EGF-induced Stat3 phosphorylation in NIH3T3/hEGFR, immunoblotting; conditions: cells pre-treated for 24 h, 10 μM
Sequence of pY705Stat3 (P42227 whole entry): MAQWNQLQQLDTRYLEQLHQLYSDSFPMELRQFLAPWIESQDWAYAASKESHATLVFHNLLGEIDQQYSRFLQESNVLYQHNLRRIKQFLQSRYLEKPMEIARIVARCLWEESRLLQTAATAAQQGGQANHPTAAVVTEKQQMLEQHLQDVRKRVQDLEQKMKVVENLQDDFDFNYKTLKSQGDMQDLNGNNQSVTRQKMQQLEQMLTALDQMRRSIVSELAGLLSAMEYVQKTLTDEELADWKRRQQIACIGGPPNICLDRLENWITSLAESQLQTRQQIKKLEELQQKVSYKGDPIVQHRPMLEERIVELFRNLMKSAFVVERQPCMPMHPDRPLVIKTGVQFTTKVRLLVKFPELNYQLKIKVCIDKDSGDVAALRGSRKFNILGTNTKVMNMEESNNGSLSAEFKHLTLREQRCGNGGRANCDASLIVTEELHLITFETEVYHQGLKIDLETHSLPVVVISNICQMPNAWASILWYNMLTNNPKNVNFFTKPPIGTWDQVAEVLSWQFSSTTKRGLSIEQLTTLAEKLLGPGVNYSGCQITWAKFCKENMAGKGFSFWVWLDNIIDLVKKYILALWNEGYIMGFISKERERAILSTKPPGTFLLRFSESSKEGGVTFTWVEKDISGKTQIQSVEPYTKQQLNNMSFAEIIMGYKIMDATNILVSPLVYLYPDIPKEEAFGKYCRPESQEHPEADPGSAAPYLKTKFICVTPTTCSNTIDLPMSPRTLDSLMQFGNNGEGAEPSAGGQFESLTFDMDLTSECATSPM
Description: (§3) Primary antibodies used were anti-Stat3, pY705Stat3, pY416Src, Src, pErk1/2, Erk1/2, EGFR, pEGFR, pJAK2, c-Myc, Bcl-xL, Bcl-2, Survivin, and β-Actin (Cell Signaling, Danvers), and VEGF (Santa Cruz Biotech, Santa Cruz).

EGF receptor and Stat3 = EGF receptor and Stat3 (Mus musculus, UniProt P42227); experiment: Co-immunoprecipitation of EGF receptor and Stat3 in EGF-stimulated NIH3T3/EGFR; conditions: pre-treatment 10 μM for 5 min to 24 h
Sequence of EGF receptor and Stat3 (P42227 2-770 limits assumed): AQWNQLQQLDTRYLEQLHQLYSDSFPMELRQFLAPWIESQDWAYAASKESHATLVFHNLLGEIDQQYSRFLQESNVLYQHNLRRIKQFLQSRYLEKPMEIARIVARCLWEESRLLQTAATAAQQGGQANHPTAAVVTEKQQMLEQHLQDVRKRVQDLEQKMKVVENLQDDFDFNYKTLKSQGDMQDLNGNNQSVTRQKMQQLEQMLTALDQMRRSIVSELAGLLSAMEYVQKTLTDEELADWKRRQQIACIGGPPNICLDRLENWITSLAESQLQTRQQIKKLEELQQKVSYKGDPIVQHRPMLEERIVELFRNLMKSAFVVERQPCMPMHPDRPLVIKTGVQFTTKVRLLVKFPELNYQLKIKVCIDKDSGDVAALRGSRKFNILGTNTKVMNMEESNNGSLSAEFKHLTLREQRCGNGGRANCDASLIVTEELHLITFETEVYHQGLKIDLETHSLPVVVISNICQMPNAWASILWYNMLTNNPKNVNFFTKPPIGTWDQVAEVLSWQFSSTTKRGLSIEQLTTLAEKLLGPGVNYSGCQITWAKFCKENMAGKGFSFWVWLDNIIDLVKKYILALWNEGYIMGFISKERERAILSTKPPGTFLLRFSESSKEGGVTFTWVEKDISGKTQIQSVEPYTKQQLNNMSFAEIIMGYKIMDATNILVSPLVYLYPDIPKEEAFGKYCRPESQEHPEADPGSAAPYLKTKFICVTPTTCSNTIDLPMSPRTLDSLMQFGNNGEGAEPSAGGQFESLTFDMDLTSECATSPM
Description: as §3

disruption of Stat1 DNA-binding activity (Stat1:Stat1) | induction by v-Src of pLucTKS3 luciferase reporter [3] | induction of pLucSRE luciferase reporter [4] | intracellular levels at 1 h (U251 cells) | intracellular levels at 6 h (U251 cells) [µM] | intracellular levels at 24 h (U251 cells) | average level in brain tissue at 10 min [5] [fmole/mg tissue] | average level in brain tissue at 60 min [5] [fmole/mg tissue] | concentration at 10 min ([5]; mouse, serum, intravenous, read-out: average level in serum at 10 min post-dosing) [µM] | concentration at 60 min ([5]; mouse, serum, intravenous, read-out: average level in serum at 60 min) [µM] | EGF-induced Stat3 phosphorylation (pY705Stat3) (pY705Stat3) | co-IP between EGF receptor and Stat3 promoted by EGF (EGF receptor and Stat3) | Compound | effect on Stat1:Stat1 DNA-binding activity (Stat1:Stat1) | effect on phosphorylation of EGFR, Src, Jak2, Shc, ERK1/2, Akt [1] | expression of Stat3-regulated genes [2] | tumor response in subjects [6]
little or no disruption |  |  |  |  |  |  |  |  |  |  |  | CN(CC(=O)N(Cc1ccc(C2CCCCC2)cc1)c1ccc(C(=O)O)cc1)S(=O)(=O)c1c(F)c(F)c(F)c(F)c1F [SH4-54] | little or no effect; also recorded: minimal effects | little or no effect | down-regulated | 
little or no disruption | significantly (p<0.01) inhibited | no attenuating effect | 1,238±181 μM | 27.6 | background levels | 7.76 | 8.19 | 13.5 | 4.67 | inhibited | suppressed | CN(CC(=O)N(Cc1ccc(C2CCCCC2)cc1)c1ccc(C(=O)NO)cc1)S(=O)(=O)c1c(F)c(F)c(F)c(F)c1F [SH5-07] | little or no effect; also recorded: minimal effects |  | down-regulated; also recorded: significantly suppressed | shrinkage of the tumors, or slowing of the progession of tumor growth is observed
